In one data set the test system is Erysiphe cichoracearum. In words: Prevention effect for powdery mildew on eggplants (Ex. 23). It counts as in vivo. The conditions noted are these: emulsion; for Germicidal damage to seedlings: eggplant seedlings; for Percentage of leaf area with disease spots / Percentage of leaves attacked with the disease / Prevention value per leaf (Perfect prevention = 100): third or ninth days, read fifteenth day after inoculation. As to the method: The emulsion was prepared by blending 25 g of ethyl 2-(2-hydroxyethylamino)-3-benzoylpropionate, 25 ml of isopropanol, 3 g of Demol T (formalin condensed naphthalenesulfonate available from Kao Sekken Inc.), 2 g of Emal 10 (sodium lauryl sulphate available from Kao Sekken Inc.) and 45 g of water.
The prevention effect of the emulsion prepared above for powdery mildew on eggplants caused by Erysiphe cichoracearum was examined in the following manner.
Eggplant seedlings of Shinkitsushin variety planted in sections in two rows of three were inoculated with the above germ by brushing on spores from other eggplant leaf attacked with the powdery mildew.
An aqueous solution of ethyl 2-(2-hydroxyethylamino)-3-benzoylpropionate (2000 ppm and 2500 ppm) was sprayed on the test plant on the third or ninth days after the seedlings were inoculated with the germ by means of glass sprayer.
(§1) The leaf area on which powdery mildew spots appeared was measured on the fifteenth day after the seedlings were inoculated with the germ. The spotted area is expressed as a prevention value.

A further data set in a line: Toxicity, LD50 for a rat. As to conditions: in vivo.
The nature of data set [1]: Toxicity, LD50 for a mouse. As to conditions: in vivo.
The next data set has as its system Sphaerotheca fuliginea. In words: Prevention effect for powdery mildew on cucumbers (Ex. 20, 21). It counts as in vivo. The conditions noted are these: Table 6; for Germicidal damage to seedlings: cucumber seedlings; for Percentage of leaf area with disease spots / Percentage of leaves attacked with the disease / Prevention value per leaf (Perfect prevention = 100): third and ninth days, read fifteenth day after inoculation. On the procedure: The prevention effect for powdery mildew on cucumbers caused by Sphaerotheca fuliginea was examined in the following manner.
Cucumber seedlings (bifoliate age) of Tokiwa Hikari No. 3 (p type) variety planted in sections of two rows of three were inoculated with the above germ by brushing on spores from a cucumber leaf attacked with powdery mildew. […]
The leaf area on which powdery mildew spots appeared was measured on the fifteenth day after the seedlings were inoculated with the germ. The spotted area is expresses as a prevention value.
The same experiment as Example 20 was carried out except that isopropyl 2-(2-hydroxyethylamino)-3-benzoyl-propionate hydrochloride was used instead of ethyl 2-(2-hydroxyethylamino)-3-benzoylpropionate hydrochloride.

For a further data set, the system named is apple canker. The conditions noted are these: cited from earlier work.
The subject of a further data set is Valsa ceratosperma. As to the kind of experiment: Length of disease spots on cut apple branches immersed in germicide before inoculation (Ex. 16). It counts as in vivo. As to conditions: 25° C. As to the method:
Branches of Delicious apple (branch diameter: about 1 cm. thick) grown for 1-2 years were cut to 10 cm. length. The cut branches were dried in a low temperature chamber (3° C.) until the water content of the cut branches became 50%. The dried cut branches were immersed in an aqueous solution of ethyl 2-(2-hydroxyethylamino)-3-benzoylpropionate hydrochloride (500 ppm, 1000 ppm and 2500 ppm) for one minute and then dried.
Each cut branch was end bored by a white heated 8 mm diameter cork borer. Valsa ceratosperma, previously cultured for four days on a potato dextrose-agar culture medium, was introduced into the branch by inoculating the branch with the Valsa ceratosperma containing culture by means of the sterilized cork borer. The branches prepared in this way were placed on wet filter paper spread in a polyethylene tray. The tray was inserted into a polyethylene bag which was sealed and then the bag was put into a thermostat (25° C.) for various controlled times.
After removal from the thermostat, the length of disease spots on each branch was measured.
A similar experiment for comparison was carried out using Benomyl, i.e. methyl-1-(buthylcarbamoyl)-2-benzimidazole carbamate as the germicide. The results of the comparative experiment and also a control experiment, in which the dried cut branches were not immersed in germicide (blank), are also shown in Table 2.

In the next data set the test system is Sphaerotheca humuli. As to the kind of experiment: Prevention effect for powdery mildew on strawberries (Ex. 22). It counts as in vivo. The conditions noted are these: for Germicidal damage to seedlings: strawberry seedlings; for Percentage of leaf area with disease spots / Percentage of leaves attacked with the disease / Prevention value per leaf (Perfect prevention = 100): third and ninth days, read fifteenth day after inoculation.
Text: The prevention effect for powdery mildew on strawberries caused by Sphaerotheca humuli was examined in the following manner.
Strawberry seedlings (3-4 leaves) of Danar variety dug up and planted in a pot in two row of three without drying the roots was inoculated with the above germ by brushing on the spores from a strawberry leaves attacked with powdery mildew.
An aqueous solution of sec-butyl 2-(2-hydroxyethylamino)-3-benzoylpropionate hydrochloride was sprayed on the test plant on the third and ninth days after the seedlings were inoculated with the germ.
as §1

Broadly, the LD50 is the dose expected to kill half of the subjects tested. A high value points to a less toxic substance. Consider `CCOC(=O)C(CC(=O)c1ccccc1)NCCO` (stereo not drawn) [ethyl 2-(2-hydroxyethylamino)-3-benzoylpropionate], for which, in the data set with Erysiphe cichoracearum (2000 ppm), the “Germicidal damage to seedlings” value was “none”, the “Percentage of leaf area with disease spots” value (“Percentage of leaf area” for short) is given as 0%, the “Percentage of leaves attacked with the disease” value (from here on “Percentage of leaves attacked”) turned out to be 0% and the “Prevention value per leaf (Perfect prevention = 100)” value (from here on “Prevention value per leaf”) was determined as 100. For the same compound, in the data set with Erysiphe cichoracearum (2500 ppm), the “Germicidal damage to seedlings” value is listed as “none”, the “Percentage of leaf area” value is 0%, the “Percentage of leaves attacked” value was found to be 0% and the “Prevention value per leaf” value came to 100. Also, the LD50 in “Toxicity, LD50 for a rat” was found to be 4790 mg/kg. Also, the LD50 in data set [1] was 7600 mg/kg.
As to `CC(C)OC(=O)C(CC(=O)c1ccccc1)NCCO.Cl` (stereo not drawn) [isopropyl 2-(2-hydroxyethylamino)-3-benzoyl-propionate hydrochloride], in the data set with Sphaerotheca fuliginea (1500 ppm), the “Germicidal damage to seedlings” value was “none”, the “Percentage of leaf area” value was found to be 8.9%, the “Percentage of leaves attacked” value was determined as 55.6% and the “Prevention value per leaf” value worked out at 88.5. Further, in the data set with Sphaerotheca fuliginea (2000 ppm), the “Germicidal damage to seedlings” value was “none”, the “Percentage of leaf area” value turned out to be 0%, the “Percentage of leaves attacked” value was 0% and the “Prevention value per leaf” value is listed as 100. Also, in the data set on Sphaerotheca fuliginea (2500 ppm), the “Germicidal damage to seedlings” value is reported as “none”, the “Percentage of leaf area” value came out at 0%, the “Percentage of leaves attacked” value was determined as 0% and the “Prevention value per leaf” value is listed as 100.
For the compound `CCCCNC(=O)n1c(NC(=O)OC)nc2ccccc21` [methyl-1-(buthylcarbamoyl)-2-benzimidazole carbamate, reference compound], the “effect after the canker attacks” value in the data set with apple canker is “can only weakly prevent the progress of the disease”. Further, the “Length of disease spot” value with Valsa ceratosperma (500 ppm, after 3 days) is reported as 1.0 mm; with Valsa ceratosperma (500 ppm, after 5 days) it was 1.0 mm; in the data set with Valsa ceratosperma (500 ppm, after 7 days), 1.8 mm; in the data set on Valsa ceratosperma (1000 ppm, after 3 days), 0.5 mm; with Valsa ceratosperma (1000 ppm, after 5 days), 0.5 mm; in the data set on Valsa ceratosperma (1000 ppm, after 7 days) it was 1.0 mm. The “Length of disease spot” value came to 0 mm in the data set with Valsa ceratosperma (2500 ppm, after 3 days); 0 mm in the data set with Valsa ceratosperma (2500 ppm, after 5 days); 0 mm in the data set on Valsa ceratosperma (2500 ppm, after 7 days).
Consider `CCC(C)OC(=O)C(CC(=O)c1ccccc1)NCCO.Cl` (stereo not drawn) [sec-butyl 2-(2-hydroxyethylamino)-3-benzoylpropionate hydrochloride], for which, in the data set on Sphaerotheca humuli (1000 ppm), the “Germicidal damage to seedlings” value is “none”, the “Percentage of leaf area” value was determined as 46.1%, the “Percentage of leaves attacked” value came out at 83.3% and the “Prevention value per leaf” value stood at 40.4. Further, in the data set on Sphaerotheca humuli (2000 ppm), the “Germicidal damage to seedlings” value was “none”, the “Percentage of leaf area” value is 0%, the “Percentage of leaves attacked” value was found to be 0% and the “Prevention value per leaf” value is on record as 100. Also, in the data set on Sphaerotheca humuli (3000 ppm), the “Germicidal damage to seedlings” value was “none”, the “Percentage of leaf area” value worked out at 0%, the “Percentage of leaves attacked” value worked out at 0% and the “Prevention value per leaf” value was 100.
Consider `COC(=O)NC(=S)Nc1ccccc1NC(=S)NC(=O)OC` [thiophanate methyl, 1,2-bis(3-methylcarbonyl-2-thioureido)], for which, in the data set on apple canker, the “effect after the canker attacks” value is “can only weakly prevent the progress of the disease”.

The values above are taken from patent US4241083A, “Germicidal composition for agriculture and horticulture” (priority 1978, dated 1980).
